Test results from US11014917B2, “5-fluoro-c-(aryl or heterocyclyl)-glycoside derivatives useful as dual SGLT1 / SGLT2 modulators” (Janssen Pharmaceutica NV, priority 2017, dated 2021).

Experiments:
human SGLT1 = target: T1, human SGLT1 (Homo sapiens, UniProt P13866); assay: SGLT1 assay: Na-dependent 14C-AMG uptake in CHO-K1 cells stably expressing human SGLT1; assay type: cell-based; settings: for IC50: average if tested more than once
T1 construct: expressed in transfected cells
T1 sequence (P13866 1-664): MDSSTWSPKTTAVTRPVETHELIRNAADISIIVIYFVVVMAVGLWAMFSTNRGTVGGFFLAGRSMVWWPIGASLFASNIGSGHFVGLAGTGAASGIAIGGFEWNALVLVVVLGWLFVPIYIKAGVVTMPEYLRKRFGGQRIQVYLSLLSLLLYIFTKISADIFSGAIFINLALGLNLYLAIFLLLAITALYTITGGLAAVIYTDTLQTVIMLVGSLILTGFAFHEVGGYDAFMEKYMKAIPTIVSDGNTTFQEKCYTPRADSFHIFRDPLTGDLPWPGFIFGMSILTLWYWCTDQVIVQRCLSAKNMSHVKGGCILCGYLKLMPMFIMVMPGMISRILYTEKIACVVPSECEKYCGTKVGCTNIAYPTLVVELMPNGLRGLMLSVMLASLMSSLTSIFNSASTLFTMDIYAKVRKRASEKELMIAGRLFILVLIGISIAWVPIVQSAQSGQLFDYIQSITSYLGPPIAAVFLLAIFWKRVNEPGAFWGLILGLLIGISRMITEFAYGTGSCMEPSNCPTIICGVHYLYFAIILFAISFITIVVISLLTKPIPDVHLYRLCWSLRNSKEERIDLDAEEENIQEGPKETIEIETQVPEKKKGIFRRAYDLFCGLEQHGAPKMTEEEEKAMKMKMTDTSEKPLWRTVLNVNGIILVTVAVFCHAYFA
Procedure, shortened: (§1)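 Stable CHO-K1 lines were pretreated 24 h with 10 mM Na-butyrate, then compound (0.001–10 μM) for 10 min in Na+ buffer (137 mM NaCl, pH 7.4). Uptake of 14C-AMG (500 μM final, 0.07 μCi/well) over 2 h at 37° C measured by scintillation; %-inhibition or IC50.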

human SGLT2 = target: T2, human SGLT2 (Homo sapiens, UniProt P31639); assay: SGLT2 assay: Na-dependent 14C-AMG uptake in CHO-K1 cells stably expressing human SGLT2; assay type: cell-based; settings: for IC50: average if tested more than once
T2 construct: expressed in transfected cells
T2 sequence (P31639 1-672): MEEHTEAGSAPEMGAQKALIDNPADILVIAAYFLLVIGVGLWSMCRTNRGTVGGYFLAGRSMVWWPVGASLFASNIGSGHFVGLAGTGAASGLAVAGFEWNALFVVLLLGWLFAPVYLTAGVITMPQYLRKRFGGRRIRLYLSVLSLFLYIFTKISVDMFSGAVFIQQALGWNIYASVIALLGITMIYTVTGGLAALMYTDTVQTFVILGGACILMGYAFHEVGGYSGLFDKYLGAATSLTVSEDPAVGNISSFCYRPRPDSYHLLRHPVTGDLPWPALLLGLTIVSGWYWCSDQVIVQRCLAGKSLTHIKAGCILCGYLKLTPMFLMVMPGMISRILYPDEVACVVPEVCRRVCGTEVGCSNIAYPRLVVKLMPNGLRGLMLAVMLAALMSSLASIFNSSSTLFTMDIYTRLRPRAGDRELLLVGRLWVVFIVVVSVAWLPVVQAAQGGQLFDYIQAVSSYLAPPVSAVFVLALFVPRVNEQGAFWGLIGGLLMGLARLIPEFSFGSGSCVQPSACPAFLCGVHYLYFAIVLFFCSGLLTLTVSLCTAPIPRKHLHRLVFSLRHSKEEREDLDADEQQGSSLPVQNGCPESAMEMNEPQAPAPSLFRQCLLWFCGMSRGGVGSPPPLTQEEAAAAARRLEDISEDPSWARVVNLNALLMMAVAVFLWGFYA
Procedure, shortened: as §1

| SMILES | SGLT1 %-inhibition (human SGLT1; @ 0.3 μM) | SGLT2 %-inhibition (human SGLT2; @ 0.3 μM) | IC50 (human SGLT1) | IC50 (human SGLT2) | also measured |
| --- | --- | --- | --- | --- | --- |
| COc1cc(OC)c([C@@H]2O[C@H](CO)[C@@H](F)[C@H](O)[C@H]2O)cc1Cc1cc2c(s1)CCN(C#N)C2 [Compound 104] | 32.5% @ 0.3 μM | 81.2% @ 0.3 μM | – | – | – |
| [2H]C([2H])(c1ccc2c(c1)OCCO2)c1cc([C@@H]2O[C@H](CO)[C@@H](F)[C@H](O)[C@H]2O)ccc1CC [Compound 157] | 47.7% @ 0.3 μM | 61.9% @ 0.3 μM | – | – | – |
| OC[C@H]1O[C@@H](c2cc(Cc3ccc4c(c3)CCCO4)c(Cl)c3c2OCC3)[C@H](O)[C@@H](O)[C@@H]1F [Compound 125, (2S,3R,4R,5S,6R)-2-(4-chloro-5-(chroman-6-ylmethyl)-2,3-dihydrobenzofuran-7-yl)-5-fluoro-6-(hydroxymethyl)-tetrahydro-2H-pyran-3,4-diol] | – | – | 227 nM | 17 nM | – |
| COc1cc(O)c(C2OC(C(C)O)C(F)C(O)C2O)cc1Cc1cc2ccccc2s1 (single isomer, unassigned) [Compound 53] | – | – | 104 nM | 26 nM | – |
| [2H]C([2H])(c1ccc2c(c1)OCCO2)c1cc([C@@H]2O[C@H](CO)[C@@H](F)[C@H](O)[C@H]2O)ccc1CC [Compound 156] | – | – | 86 nM | 10 nM | – |
| CCc1c(Cc2ccc3c(c2)OCCO3)cc([C@@H]2O[C@H](CO)[C@@H](F)[C@H](O)[C@H]2O)c2c1CCO2 [Compound 180] | – | – | 61 nM | 25 nM | – |
| Cc1cc(O)c([C@@H]2O[C@H](C(C)(C)O)[C@@H](F)[C@H](O)[C@H]2O)cc1Cc1cc2ccccc2s1 [Compound 39] | – | – | 381 nM | 123 nM | – |
| CN1CCCc2ccc(Cc3cc([C@@H]4O[C@H](CO)[C@@H](F)[C@H](O)[C@H]4O)cc4c3OCC4)cc21 [Compound 94] | 32.6% @ 0.3 μM | 19.2% @ 0.3 μM | – | – | – |
| COc1c([C@@H]2O[C@H](CO)[C@@H](F)[C@H](O)[C@H]2O)cc(Cc2ccc3c(c2)OCCO3)c2c1CCO2 [Compound 65, (2S,3R,4R,5S,6R)-2-(7-((2,3-dihydrobenzo[b][1,4]dioxin-6-yl)methyl)-4-methoxy-2,3-dihydrobenzofuran-5-yl)-5-fluoro-6-(hydroxymethyl)tetrahydro-2H-pyran-3,4-diol] | – | – | 43 nM | 9 nM | – |
| Cc1c(Cc2cc3ccccc3s2)cc([C@@H]2O[C@H](CO)[C@@H](F)[C@H](O)[C@H]2O)c(O)c1C [Compound 13] | – | – | 15 nM | 7 nM | – |
| COc1cc(OC)c(C2OC(C(C)O)C(F)C(O)C2O)cc1Cc1cc2ccccc2s1 (single isomer, unassigned) [Compound 72] | – | – | 127 nM | 24 nM | – |
| [2H]C1([2H])Oc2ccc(Cc3cc([C@@H]4O[C@H](CO)[C@@H](F)[C@H](O)[C@H]4O)ccc3OC)cc2OC1([2H])[2H] [Compound 173] | – | – | 190 nM | 13 nM | – |
| Cc1c(Cc2cc3ccccc3s2)cc([C@@H]2O[C@H](CO)[C@@H](F)[C@H](O)[C@H]2O)c2c1CCO2 [Compound 68] | – | – | 55 nM | 21 nM | – |
| Cc1ccc([C@@H]2O[C@H](CO)[C@@H](F)[C@H](O)[C@H]2O)cc1Cc1cc2c(s1)CCN(C(=O)C1CCCC1)C2 [Compound 87] | 48.7% @ 0.3 μM | 59.0% @ 0.3 μM | – | – | – |
| Cc1ccc([C@@H]2O[C@H](CO)[C@@H](F)[C@H](O)[C@H]2O)cc1Cc1cc2c(s1)CCN(C(=O)N1CCCC1)C2 [Compound 78] | 28.4% @ 0.3 μM | 86.9% @ 0.3 μM | – | – | – |
| COC(=O)N1CCc2sc(Cc3cc([C@@H]4O[C@H](CO)[C@@H](F)[C@H](O)[C@H]4O)ccc3Cl)cc2C1 [Compound 80] | 37.4% @ 0.3 μM | 60.4% @ 0.3 μM | – | – | – |
| Cc1cc(N2CCc3sc(Cc4cc([C@@H]5O[C@H](CO)[C@@H](F)[C@H](O)[C@H]5O)ccc4C)cc3C2)c(C)s1 [Compound 138] | 37.5% @ 0.3 μM | 46.7% @ 0.3 μM | – | – | – |

| SMILES | SGLT1 %-inhibition (human SGLT1; @ 0.3 μM) | SGLT2 %-inhibition (human SGLT2; @ 0.3 μM) | IC50 (human SGLT1) | IC50 (human SGLT2) | also measured |
| --- | --- | --- | --- | --- | --- |
| COc1cc(OC)c([C@@H]2O[C@H](CO)[C@@H](F)[C@H](O)[C@H]2O)cc1Cc1cc2ccccc2s1 [Compound 12] | – | – | 100 nM | 24 nM | – |
| CC1(CO)COc2c(Cc3ccc4c(c3)OCCO4)cc([C@@H]3O[C@H](CO)[C@@H](F)[C@H](O)[C@H]3O)cc21 (some centres unmarked) [Compound 88] | 42.5% @ 0.3 μM | 44.8% @ 0.3 μM | – | – | – |
| CCc1ccc(Cc2cc([C@@H]3O[C@H](CO)[C@@H](F)[C@H](O)[C@H]3O)c(O)c3c2OCC3)cc1 [Compound 62] | – | – | 48 nM | 4 nM | – |
| COC(=O)N1CCc2sc(Cc3cc([C@@H]4O[C@H](CO)[C@@H](F)[C@H](O)[C@H]4O)c(O)cc3Cl)cc2C1 [Compound 73] | – | – | 240 nM | 48 nM | – |
| [2H]C1([2H])Oc2ccc(Cc3cc([C@@H]4O[C@H](CO)[C@@H](F)[C@H](O)[C@H]4O)c4c(c3CC)CCO4)cc2OC1([2H])[2H] [Compound 179] | – | – | 60 nM | 15 nM | – |
| OC[C@H]1O[C@@H](c2cc3c(c(Cc4ccc5c(c4)CCCO5)c2)OCC3)[C@H](O)[C@@H](O)[C@@H]1F [Compound 56] | – | – | 523 nM | 12 nM | – |
| [2H]C1([2H])Oc2ccc(Cc3cc([C@@H]4O[C@H](CO)[C@@H](F)[C@H](O)[C@H]4O)cc4c3CCO4)cc2OC1([2H])[2H] [Compound 181] | 67.0% @ 0.3 μM | 85.0% @ 0.3 μM | – | – | – |
| CCc1cc(O)c([C@@H]2O[C@H](CO)[C@@H](F)[C@H](O)[C@H]2O)cc1Cc1cc2c(s1)CCN(C#N)C2 [Compound 118] | – | – | 50 nM | 2 nM | – |
| CC(=O)N1CCc2sc(Cc3cc([C@@H]4O[C@H](CO)[C@@H](F)[C@H](O)[C@H]4O)c(O)cc3Cl)cc2C1 [Compound 74] | 65.5% @ 0.3 μM | 65.2% @ 0.3 μM | – | – | – |
| COc1cc(O)c([C@@H]2O[C@H](C)[C@@H](F)[C@H](O)[C@H]2O)cc1Cc1cc2ccccc2s1 [Compound 10] | – | – | 85 nM | 82 nM | – |
| [2H]C([2H])(c1ccc2c(c1)CCCO2)c1cc([C@@H]2O[C@H](CO)[C@@H](F)[C@H](O)[C@H]2O)ccc1OC [Compound 171] | 27.1% @ 0.3 μM | 69.9% @ 0.3 μM | – | – | – |
| Cc1cc(O)c([C@@H]2O[C@H](CO)[C@@H](F)[C@H](O)[C@H]2O)cc1Cc1cc2c(s1)CCN(C(=O)c1nccs1)C2 [Compound 84, (2-(5-((2S,3R,4R,5S,6R)-5-fluoro-3,4-dihydroxy-6-(hydroxymethyl)-tetrahydro-2H-pyran-2-yl)-4-hydroxy-2-methylbenzyl)-6,7-dihydrothieno[3,2-c]pyridin-5(4H)-yl)(thiazol-2-yl)methanone] | – | – | 101 nM | 36 nM | – |
| OC[C@H]1O[C@@H](c2cc3c(c(Cc4ccc5c(c4)NCCC5)c2)OCC3)[C@H](O)[C@@H](O)[C@@H]1F [Compound 89] | – | – | 42 nM | 100 nM | – |
| [2H]C([2H])(c1ccc2c(c1)OC([2H])([2H])C([2H])([2H])O2)c1cc([C@@H]2O[C@H](CO)[C@@H](F)[C@H](O)[C@H]2O)ccc1CC [Compound 176] | 68.9% @ 0.3 μM | 56.1% @ 0.3 μM | – | – | – |
| COc1c(Cc2cc3ccccc3s2)cc([C@@H]2O[C@H](CO)[C@@H](F)[C@H](O)[C@H]2O)c(OC)c1C [Compound 15] | – | – | 100 nM | 68 nM | – |
| COc1c(Cc2ccc3c(c2)CCCO3)cc([C@@H]2O[C@H](CO)[C@@H](F)[C@H](O)[C@H]2O)c2c1CCO2 [Compound 126, (2S,3R,4R,5S,6R)-2-(5-(chroman-6-ylmethyl)-4-methoxy-2,3-dihydrobenzofuran-7-yl)-5-fluoro-6-(hydroxymethyl)-tetrahydro-2H-pyran-3,4-diol] | – | – | – | – | inhibition at 0.3 µM (human SGLT1; @ 0.3 μM): 21.7%; inhibition at 0.3 µM (human SGLT2; @ 0.3 μM): 16.8% |
| [2H]C([2H])(c1ccc2c(c1)CCCO2)c1cc([C@@H]2O[C@H](CO)[C@@H](F)[C@H](O)[C@H]2O)ccc1CC [Compound 169] | 37.2% @ 0.3 μM | 72.7% @ 0.3 μM | – | – | – |
